From paper PMC7155171, “Probing the Open Global Health Chemical Diversity Library for Multistage-Active Starting Points for Next-Generation Antimalarials” (ACS Infectious Diseases, 2020)

Legend:
[1] = system: P. berghei liver stage (PbLuc); assay: P. berghei luciferase liver stage (PbLuc) assay in HepG2-A16-CD81 hepatocytes; format: cell-based, Plasmodium berghei; conditions: Plasmodium berghei; for IC50: HepG2-A16-CD81, 12pt dose response, read-out: PbLuc 12pt dose response: IC50; for Emax: HepG2-A16-CD81, 48 h, 12pt dose response, maximum inhibition
[2] = target: recombinant firefly luciferase (Photinus pyralis, UniProt P08659); assay: biochemical; conditions: dose response; for Emax: maximum inhibition, read-out: rLuc inhibition dose response: Maximum inhibition (%); for IC50: read-out: rLuc inhibition dose response: IC50
[3] = HepG2 cytotoxicity screening (CellTiter-Glo); conditions: human, uninfected HepG2-A16-CD81 (EGFP) hepatocytes
[4] = system: HepG2-A16-CD81 hepatocytes; assay: HepG2 cytotoxicity screening (CellTiter-Glo); conditions: for HepG2 cytotoxicity 12pt dose response: Maximum inhibition (%): 12pt dose response

Chain of recombinant firefly luciferase (P08659 whole entry): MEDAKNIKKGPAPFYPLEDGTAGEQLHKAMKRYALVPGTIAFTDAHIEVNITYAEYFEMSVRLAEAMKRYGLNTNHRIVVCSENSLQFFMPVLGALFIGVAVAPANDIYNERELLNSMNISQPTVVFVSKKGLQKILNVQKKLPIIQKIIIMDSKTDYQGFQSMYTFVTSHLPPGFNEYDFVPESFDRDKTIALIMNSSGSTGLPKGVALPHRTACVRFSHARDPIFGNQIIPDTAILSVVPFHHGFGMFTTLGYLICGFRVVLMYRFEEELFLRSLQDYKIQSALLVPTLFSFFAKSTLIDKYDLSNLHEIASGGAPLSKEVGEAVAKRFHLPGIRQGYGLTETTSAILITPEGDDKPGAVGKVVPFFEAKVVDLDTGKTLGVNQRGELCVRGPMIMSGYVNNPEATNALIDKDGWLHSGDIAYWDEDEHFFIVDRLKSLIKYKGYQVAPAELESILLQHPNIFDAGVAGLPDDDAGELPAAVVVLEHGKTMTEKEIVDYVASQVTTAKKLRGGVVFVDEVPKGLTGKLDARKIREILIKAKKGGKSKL

| SMILES | IC50 [1] [µM] | Emax [1] [%] | Emax [2] [%] | IC50 [2] [µM] | IC50 [3] [µM] | inhibition at 2 µM [3] [%] | HepG2 cytotoxicity 12pt dose response: Maximum inhibition (%) [4] [%] | HepG2 Cytotoxicity primary screen (2uM): % Inhibition [4] [%] |
| --- | --- | --- | --- | --- | --- | --- | --- | --- |
| CCS(=O)(=O)N1CCc2ccc(NC(=O)Nc3cccc(SC)c3)cc21 [UCSD-0795016] | 1.38 | 98.9 | 12.2 | > 25 | 3.39 | 0 | 54 |  |
| Cc1[nH]/c(=N\C(=O)c2csc(NCC(C)C)n2)sc1C [UCSD-0795190] | 8.85 | 84.4 | 77 | 9.64 | > 25 | 0 | 42.7 |  |
| CC(=O)Nc1ccc(-n2ccc3nc(N4CCCC4)ncc3c2=O)cc1 [UCSD-0795240] | 4.11 | 100 | -8.22 | > 25 | > 25 | 0 | 8.78 |  |
| Cc1ccc(N(CC(=O)c2ccc(Br)cc2)C2=NCCCCC2)cc1 [UCSD-0795313] | 13.6 | 93.4 | 7.66 | > 25 | > 25 |  | 28.6 | 0.00 |
| COCCCNC1N=C(n2nc(C)cc2C)Nc2sc3c(c21)CCCC3 (centres unmarked) [UCSD-0796603] | 4.36 | 98.7 | 17.3 | > 25 | > 25 |  | -1.93 | 2.66 |
| CC(=O)Nc1ncc(S(=O)(=O)Nc2ccc3c(c2)OCCO3)s1 [UCSD-0796805] | 9.83 | 92 | 52.2 | > 25 | > 25 |  | 4.04 | -2.36 |
| CCC1=NC(SCC(=O)c2ccccc2)c2cc(CC)sc2N1 (centres unmarked) [UCSD-0796974] | > 25 | 42.1 | 7.45 | > 25 | > 25 | 3.26 | 3.82 |  |
| Cc1cccc(Nc2cc(C3CCCN(CC(N)=O)C3)ccn2)n1 (centres unmarked) [UCSD-0798772] | < 0.000141 | 89.4 |  | > 8.33 | > 25 | 1.68 | 3.72 |  |
| CCOc1ccc(CN2CCCC(c3cc4ncccc4[nH]3)C2)cc1 (centres unmarked) [UCSD-0798855] | 5.76 | 90.3 | 20.7 | > 25 | > 25 | 9.74 | 11.6 |  |
| Fc1ccc(CN2CCCC(c3cc4ncccc4[nH]3)C2)cc1 (centres unmarked) [UCSD-0798856] | 8.45 | 78.4 | 23.6 | > 25 | > 25 | 12 | -0.046 |  |
| Cn1cncc1CN1CCCC1c1cncc(Oc2ccc(Cl)cc2)n1 (centres unmarked) [UCSD-0800730] | 12.9 | 92.6 | 3.17 | > 25 | > 25 |  | 38.2 | 0.83 |
| Cc1ncc(CN2CCOC(c3ccc(-c4ccccc4F)cn3)C2)s1 (centres unmarked) [UCSD-0800928] | 11.1 | 85.7 | 19.3 | > 25 | > 25 |  | 36.5 | -6.23 |
| Cc1ccc(Nc2nccc(C3CCN(CC(N)=O)C3)n2)nc1 (centres unmarked) [UCSD-0800962] | 0.00289 |  | 81.5 | 0.0401 | > 25 |  | 15.1 |  |
| COc1cc(C)c(CN2CCc3nc4ccsc4c(=O)n3CC2)cc1C [UCSD-0801369] | 8.88 | 95.5 | 5.88 | > 25 | > 25 | 0 | 25.1 |  |
| O=c1c2sccc2nc2n1CCN(Cc1ccccc1C(F)(F)F)CC2 [UCSD-0801403] | 6.77 | 95.7 | 18.4 | > 25 | > 25 | 0 | 19.7 |  |
| CSc1ccc(CN2C[C@@H]3CC[C@@](O)(c4ccc(C)cn4)[C@@H]3C2)cc1 [UCSD-0801744] | 23 | 66.8 | 38.3 | > 25 | > 25 | 2.45 | 9.86 |  |
| Clc1ccc(-c2ccc(C3CNCCO3)nc2)cc1 (centres unmarked) [UCSD-0802213] | < 0.000141 |  | 95.9 | 0.0623 | > 25 | 18.1 | -1.02 |  |
| COc1ccc(-c2ccc(C3CNCCO3)nc2)cc1 (centres unmarked) [UCSD-0802458] | < 0.000141 | 94 | 89.6 | 0.0276 | > 50 | 23.7 | -13.4 |  |
| Cc1ccc(-c2ccc(C3CNCCO3)nc2)cc1 (centres unmarked) [UCSD-0802459] | < 0.000141 | 98.6 | 88.3 | 0.00428 | > 50 | 25.3 | 48.6 |  |
| Cc1cc(-c2cnc(NCc3cccnc3)nc2C(C)(C)C)on1 [UCSD-0802583] | 10.1 | 86.4 | 6.14 | > 25 | > 25 |  | 45.3 | -8.43 |
| CC(C)(C)OC(=O)N1CCCN(Cc2ccon2)c2ccccc21 [UCSD-0805052] | 8.56 | 93.5 | 18.4 | > 25 | > 25 | 10.4 | 13.5 |  |
| CCN1CC(CN(C)c2cc(C)nc(N)n2)Oc2ccccc21 (centres unmarked) [UCSD-0806866] | 5.15 | 93.5 | 15.4 | > 25 | 20.6 | -3.08 | 73.7 |  |
| COC(=O)CSCc1noc(-c2ccc(C)cc2)n1 [UCSD-0807935] | 0.0335 | 77.1 | 62.8 | > 25 | > 25 | -4.01 | 3.73 |  |
| N#Cc1c(Cl)nsc1NCc1cccnc1OCC(F)(F)F [UCSD-0808444] | 14.9 | 69.5 | 43.9 | > 25 | > 25 |  | -0.683 | 4.29 |
| CCNc1ccnc(CN2CCCC2C(=O)Nc2nccs2)c1 (centres unmarked) [UCSD-0809356] | 4.46 |  | 21.2 | > 25 | > 25 |  | 2.09 | 1.30 |
